{"source": "patent US20060293223A1", "about": "(Eli Lilly and Company Patent Division, priority 2003, published 2006)", "note": "Positions of bridges follow the written chain, without caps; N, C: chain ends. Non-standard residues stand in square brackets, D forms with d. No end group written: not given here. NMeY = CN[C@@H](Cc1ccc(O)cc1)C(=O)O; hCys = N[C@@H](CCS)C(=O)O;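 also: ratio of EC50 values obtained at MC1 versus MC4 receptors, with MC1 potency measured by luciferase reporter activity in stably transfected cells expressing human MC1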", "data": [{"test_system": "MC1/MC4", "details": "ratio MC1/MC4", "values": [{"substance": "Arg-cyclo[Cys-Glu-His-D-Phe-Arg-Trp-Cys]-OH [Compound 45]", "MC1/MC4 selectivity": 30.47}, {"substance": "Arg-cyclo[Cys-His-(4-Cl-D-Phe)-Arg-Trp-hCys]-NH2 [Compound 188]", "MC1/MC4 selectivity": 29.56}, {"substance": "Arg-cyclo[Cys-His-(4-F-D-Phe)-Arg-Trp-hCys]-NH2 [Compound 187]", "MC1/MC4 selectivity": 20.76}, {"substance": "Arg-cyclo[hCys-(1-Me-D-His)-D-Phe-Arg-Trp-Cys]-NH2 [Compound 157]", "MC1/MC4 selectivity": 17.60}, {"substance": "Arg-cyclo[hCys-(1-Me-His)-D-Phe-Arg-Trp-Cys]-NH2 [Compound 156]", "MC1/MC4 selectivity": 158.41}, {"substance": "Arg-cyclo[hCys-His-D-Phe-Arg-Trp-hCys]-NH2 [Compound 194]", "MC1/MC4 selectivity": 10.61}, {"substance": "N-(2-naphthalenesulfonyl)-D-Arg-cyclo[Cys-Glu-His-D-Phe-Arg-Trp-Cys]-NH2 [Compound 64]", "MC1/MC4 selectivity": 4.12}, {"substance": "N-(2-naphthalenesulfonyl)-cyclo[hCys-His-D-Phe-Arg-Trp-Cys]-NH2 [Compound 151]", "MC1/MC4 selectivity": 14.00}, {"substance": "N-(2-naphthalenesulfonylamino-4-oxo-butyryl)-D-Arg-cyclo[Cys-Glu-His-D-Phe-Arg-Trp-Cys]-NH2 [Compound 65]", "MC1/MC4 selectivity": 2.70}, {"substance": "N-(4-phenylsulfonamido-4-oxo-butyryl)-cyclo[hCys-His-D-Phe-Arg-Trp-Cys]-NH2 [Compound 152]", "MC1/MC4 selectivity": 7.73}, {"substance": "N-butyryl-cyclo[Cys-Glu-His-D-Phe-Arg-Trp-Cys]-NH2 [Compound 38]", "MC1/MC4 selectivity": 28.16}, {"substance": "N-cyclobutanecarbonyl-cyclo[hCys-His-D-Phe-Arg-Trp-Cys]-NH2 [Compound 142]", "MC1/MC4 selectivity": 35.55}, {"substance": "N-cyclohexanecarbonyl-cyclo[hCys-His-D-Phe-Arg-Trp-Cys]-NH2 [Compound 144]", "MC1/MC4 selectivity": 14.85}, {"substance": "N-cyclohexanecarbonyl-cyclo[hCys-His-D-Phe-Arg-Trp-penicillamine]-NH2 [Compound 172]", "MC1/MC4 selectivity": 26.45}, {"substance": "N-cyclopentanecarbonyl-cyclo[hCys-His-D-Phe-Arg-Trp-Cys]-NH2 [Compound 143]", "MC1/MC4 selectivity": 19.27}, {"substance": "N-cyclopentanecarbonyl-cyclo[hCys-His-D-Phe-Arg-Trp-penicillamine]-NH2 [Compound 171]", "MC1/MC4 selectivity": 75.11}, {"substance": "N-cyclopropanecarbonyl-cyclo[hCys-His-D-Phe-Arg-Trp-Cys]-NH2 [Compound 141]", "MC1/MC4 selectivity": 83.00}, {"substance": "N-glutaryl-Tyr-Arg-cyclo[Cys-Glu-His-D-Phe-Arg-Trp-Cys]-NH2 [Compound 75]", "MC1/MC4 selectivity": 6.00}, {"substance": "N-glutaryl-Tyr-Arg-cyclo[Cys-Glu-His-D-Phe-Arg-Trp-Cys]-OH [Compound 76]", "MC1/MC4 selectivity": 6.00}, {"substance": "N-hexanoyl-cyclo[hCys-His-D-Phe-Arg-Trp-Cys]-NH2 [Compound 145]", "MC1/MC4 selectivity": 3.82}, {"substance": "N-hexanoyl-cyclo[hCys-His-D-Phe-Arg-Trp-penicillamine]-NH2 [Compound 170]", "MC1/MC4 selectivity": 9.00}, {"substance": "N-phenylsulfonyl-cyclo[hCys-His-D-Phe-Arg-Trp-Cys]-NH2 [Compound 150]", "MC1/MC4 selectivity": 12.88}, {"substance": "N-propionyl-cyclo[Cys-Glu-His-D-Phe-Arg-Trp-Cys]-NH2 [Compound 37]", "MC1/MC4 selectivity": 36.99}, {"substance": "N-succinyl-Tyr-Arg-cyclo[Cys-Glu-His-D-Phe-Arg-Trp-Cys]-NH2 [Compound 74]", "MC1/MC4 selectivity": 12.00}, {"substance": "N-succinyl-Tyr-Arg-cyclo[Cys-Glu-His-D-Phe-Arg-Trp-Cys]-OH [Compound 131]", "MC1/MC4 selectivity": 7.00}, {"substance": "N-valeryl-cyclo[Cys-Glu-His-D-Phe-Arg-Trp-Cys]-NH2 [Compound 39]", "MC1/MC4 selectivity": 19.67}, {"substance": "RCH[dF]RW[hCys]-NH2 (disulfide 2-7) [Compound 186]", "MC1/MC4 selectivity": 11.44}, {"substance": "R[hCys]H[dF]RWC-NH2 (disulfide 2-7) [Compound 153]", "MC1/MC4 selectivity": 41.81}, {"substance": "R[hCys]H[dF]RWC-OH (disulfide 2-7) [Compound 155]", "MC1/MC4 selectivity": 55.84}, {"substance": "Tyr-Arg-cyclo[Cys-Glu-His-D-Phe-Arg-Trp-Cys]-NH2 [Compound 68]", "MC1/MC4 selectivity": 14.08}, {"substance": "Tyr-Arg-cyclo[Cys-Glu-His-D-Phe-Arg-Trp-Cys]-NH—(CH2)6—NH2 [Compound 70]", "MC1/MC4 selectivity": 2.00}, {"substance": "Tyr-Arg-cyclo[Cys-Glu-His-D-Phe-Arg-Trp-Cys]-OH [Compound 69]", "MC1/MC4 selectivity": 18.38}, {"substance": "YRCEH[dF]RWCE-NH2 (disulfide 3-9) [Compound 71]", "MC1/MC4 selectivity": 5.13}, {"substance": "YRCGH[dF]RWC-NH2 (disulfide 3-9) [Compound 11]", "MC1/MC4 selectivity": 11.00}, {"substance": "YR[hCys]H[dF]RWC-NH2 (disulfide 3-8) [Compound 162]", "MC1/MC4 selectivity": 30.07}, {"substance": "YR[hCys]H[dF]RWC-OH (disulfide 3-8) [Compound 163]", "MC1/MC4 selectivity": 19.46}, {"substance": "[NMeY]RCMH[dF]RWC-NH2 (disulfide 3-9) [Compound 17]", "MC1/MC4 selectivity": 10.42}, {"substance": "[dR][hCys]H[dF]RWC-NH2 (disulfide 2-7) [Compound 154]", "MC1/MC4 selectivity": 36.00}, {"substance": "cyclo[3-thiopropionyl-His-D-Phe-Arg-Trp-hCys]-NH2 [Compound 179]", "MC1/MC4 selectivity": 5.35}, {"substance": "cyclo[Cys-Glu-His-D-Phe-Arg-Trp-Cys]-NH2 [Compound 29]", "MC1/MC4 selectivity": 15.00}, {"substance": "cyclo[Cys-His-(4-Cl-D-Phe)-Arg-Trp-hCys]-NH2 [Compound 182]", "MC1/MC4 selectivity": 185.74}, {"substance": "cyclo[Cys-His-(4-F-D-Phe)-Arg-Trp-hCys]-NH2 [Compound 181]", "MC1/MC4 selectivity": 45.25}, {"substance": "cyclo[Cys-His-D-Phe-Arg-Trp-hCys]-NH2 [Compound 180]", "MC1/MC4 selectivity": 30.38}, {"substance": "cyclo[hCys-His-(4-Cl-D-Phe)-Arg-Trp-Cys]-NH2 [Compound 135]", "MC1/MC4 selectivity": 120.27}, {"substance": "cyclo[hCys-His-(4-F-D-Phe)-Arg-Trp-Cys]-NH2 [Compound 134]", "MC1/MC4 selectivity": 68.42}, {"substance": "cyclo[hCys-His-D-Phe-Arg-Trp-Cys]-NH2 [Compound 132]", "MC1/MC4 selectivity": 77.32}, {"substance": "cyclo[hCys-His-D-Phe-Arg-Trp-Cys]-OH [Compound 133]", "MC1/MC4 selectivity": 31.29}, {"substance": "phenylsulfonyl-Gly-cyclo[hCys-His-D-Phe-Arg-Trp-Cys]-NH2 [Compound 161]", "MC1/MC4 selectivity": 2.18}]}]}
